# Data: patent US20210353585A1, “METHODS AND COMPOSITIONS FOR TREATING LAMINOPATHIES AFFECTING SKELETAL OR CARDIAC MUSCLE” (CORNELL UNIVERSITY, priority 2018, published 2021)
# Tests used:
# [1] = tested on: Lmna WT myofibers; experiment: DNA damage by γH2AX foci per nucleus, Lmna WT; assay type: cell-based, mouse; settings: for DNA damage (γH2AX foci per nucleus): Lmna WT cells, phleomycin with DNA-PK+ATM inhibition vs phleomycin alone; for DNA damage (γH2AX foci): wild-type myofibers, phleomycin 20 μg/ml pulses combined with NU7441 (2 μM) and/or KU55933 (2 μM), comparable to untreated Lmna KO
# Protocol: (§1) Pharmacological treatments. For preliminary experiments, myoblasts were differentiated using the standard protocol and treated with pharmacological treatments starting at day 5 of differentiation. For chromatin protrusion studies, paclitaxel was administered to differentiated myotubes in two 24 hours bursts at day 4 and day 6-post differentiation with a 24 hour recovery in between. Myotubes were then fixed in 4% PFA at day 7 and stained with anti-lamin B and DAPI in order to quantify the percentage of myonuclei with chromatin protrusions. For long term studies using the cGAS reporter, myotubes were treated with 10 nM of paclitaxel starting at day 5 and then media was refreshed every day. […] For DNA damage induction and inhibitor experiments, cells were treated with 20 μg/ml of phleomycin for a two-hour pulse on Day 3, 4, and 5 of differentiation. Concurrently, cells were treated with NU7441 (2 μM), KU55933 (2 μM) starting at day 2 of differentiation through day 10 of differentiation. For induction of DN-KASH and DN-KASHext, cells were treated with 1 μM doxycycline.
# Immunofluorescence staining of mouse cells and tissues. Cells were fixed in pre-warmed 4% PFA at the appropriate time point(s) and washed with PBS. Cells were blocked and permeabilized with a solution of 3% BSA, 0.1% Triton-X 100 and 0.1% Tween (Sigma) for 1 hour at room temperature. Cells were stained with primary antibodies diluted in blocking solution according to Table 4 at 4° C. overnight. Samples were washed with PBS and incubated for 1 hour at room temperature with 1:250 dilution of AlexaFluor antibodies (Invitrogen) and 1:1000 DAPI (Sigma). Single muscle fibers were stained using the same procedure in Eppendorf tube baskets with an increase in blocking solution Triton-X concentration to 0.25%.
# Image analysis. Image sequences were analyzed using ZEN (Zeiss), ImageJ, or MATLAB (Mathworks) using only linear adjustments uniformly applied to the entire image region. Region of interest intensities were extracted using ZEN or ImageJ. To quantify cleaved caspase-3 (i.e. active) area and myofiber health, maximum intensity protections were generated, which were then blinded to the observer. Cleaved caspase-3 area was calculated by thresholding of the caspase-3 and myosin heavy chain fluorescent signal and expressing the cleaved caspase-3 signal relative to the myosin heavy chain signal. Myofiber contractions were scored based on a minimum of 6 random fields of view per replicate using a blinded analysis according to the scales provided in FIGS. 4A-4B. […] Protrusions lengths were both counted and measured by the presence of DAPI signal beyond the lamin B rim of the nucleus. Aspect ratio was quantified based on a thresholded lamin B rim to avoid the confounding factor of the DNA protrusions outside the body of the nucleus. Nuclear rupture was detected by an increase of the cytoplasmic NLS-GFP signal, or the localization of cGAS-mCherry to the nucleus. For better visualization of NLS-GFP cells many of the fluorescent single color image sequences were inverted. […] DNA damage was determined by counting H2AX foci and then binned based on foci number. If damage was so severe that individual foci could not be counted, these nuclei were placed in the >25 foci category. For Hsp90 quantification, average nuclear Hsp90 fluorescence intensity was determined from a single mid-nucleus z-plane image and normalized to the cytoplasmic intensity at two points immediately adjacent to the nucleus.
# [2] = tested on: Lmna WT myofibers; experiment: Cell viability MTT assay, Lmna WT; assay type: cell-based, mouse; settings: wild-type myofibers; phleomycin 20 μg/ml pulses combined with NU7441 (2 μM) and/or KU55933 (2 μM); comparable to untreated Lmna KO
# Protocol: as §1
# (§2) MTT assay. Myoblasts, seeded in a 96-well plate and differentiated as previously described for 0, 5, or 10 days, were assayed for cell viability according to the manufacturer's instructions (Promega, CellTiter 96 Non-Radioactive Cell Proliferation Assay). Fresh differentiation media was added two hours prior to the addition of 15 μL MTT 3-(4,5-dimethylthiazol-2-yl)-2,5-diphenyltetrazolium bromide dye. After incubation for 3 hours in MTT dye, 100 uL of Stop Solution was added to solubilize the formazan product (appears purple). Following overnight incubation at 37° C. and 5% CO2, the absorbance of each well (measured at 590 nm) was analyzed using a microplate reader.
# [3] = tested on: Lmna KO myofibers; experiment: Cell viability MTT assay, Lmna KO; assay type: cell-based, mouse; settings: phleomycin alone or in combination with NU7441 and/or KU55933
# Protocol: as §1, §2
# [4] = tested on: chick cardiac tissue; settings: Cho et al. 2019; cited from earlier work
# [5] = tested on: Lmna KO myofibers; experiment: Quantification of myonuclei with chromatin protrusions; assay type: cell-based, mouse; settings: paclitaxel 50 nM starting day 4, read day 7, vs DMSO
# Protocol: Pharmacological treatments. For preliminary experiments, myoblasts were differentiated using the standard protocol and treated with pharmacological treatments starting at day 5 of differentiation. For chromatin protrusion studies, paclitaxel was administered to differentiated myotubes in two 24 hours bursts at day 4 and day 6-post differentiation with a 24 hour recovery in between. Myotubes were then fixed in 4% PFA at day 7 and stained with anti-lamin B and DAPI in order to quantify the percentage of myonuclei with chromatin protrusions. For long term studies using the cGAS reporter, myotubes were treated with 10 nM of paclitaxel starting at day 5 and then media was refreshed every day. […]
# Image analysis. Image sequences were analyzed using ZEN (Zeiss), ImageJ, or MATLAB (Mathworks) using only linear adjustments uniformly applied to the entire image region. […] To quantify cleaved caspase-3 (i.e. active) area and myofiber health, maximum intensity protections were generated, which were then blinded to the observer. Cleaved caspase-3 area was calculated by thresholding of the caspase-3 and myosin heavy chain fluorescent signal and expressing the cleaved caspase-3 signal relative to the myosin heavy chain signal. Myofiber contractions were scored based on a minimum of 6 random fields of view per replicate using a blinded analysis according to the scales provided in FIGS. 4A-4B. […]
# [6] = tested on: Lmna H222P mice; settings: Macquart et al. 2018; cited from earlier work
# [7] = tested on: Lmna KO myofibers; experiment: Microharpoon assay of nuclear deformation; assay type: cell-based, mouse; settings: Lmna KO myotubes, 50 nM paclitaxel for 24 hours vs DMSO
# Protocol: For the microharpoon studies, myoblasts were seeded in 35 mm glass bottom dishes and differentiated as previously described, except without the addition of a Matrigel top coat to allow microharpoon access. A Sutter P-97 micropipette puller was used to create microharpoons from borosilicate glass rods (Sutter; OD: 1.0 mm, ID: 0.78, 10 cm length) with tip diameters of ≈1 μm. Day 4 myotubes (Lmna KO and wild-type) were treated for 24 hours with either 50 nM Paclitaxel or the corresponding 0.1% DMSO. The following day, the microharpoon assay was performed as described in Fedorchak et al., “Cell Microharpooning to Study Nucleo-Cytoskeletal Coupling,” Methods Mol. Biol. 1411:241-254 (2016), which is hereby incorproated by reference in its entirety, with slight modifications to the pull parameters to accommodate myotubes. The microharpoon was inserted ≈5-7 μm from the edge of the nucleus and pulled 15 μm at a rate of 1 μm/s. Pull direction was always orthogonal to the long axis of the myofiber. Images were acquired at 40× (+1.6×) every 5 seconds. Nuclear strain and centroid displacement were calculated using a custom-written MATLAB program. […]
# [8] = tested on: Lmna KO myofibers; experiment: Nuclear envelope rupture, cGAS-mCherry reporter foci; assay type: cell-based, mouse; settings: paclitaxel 10 nM starting day 5, vs DMSO
# Excerpt: Each of the mutant myoblast lines were stably modified with lentiviral vectors to express the nuclear rupture reporter NLS-GFP (pCDH-CMV-NLS-copGFP-EF1-blastiS) and cGAS-mCherry (pCDH-CMV-eGAs^E225A/D227A-mCherry2-EF1-blastiS). cGAS is a cytosolic DNA binding protein; a cGAS mutant (E225A/D227A) with abolished enzyme activity and interferon production, but that still binds DNA (Civril et al., “Structural Mechanism of Cytosolic DNA Sensing by cGAS,” Nature 498:332-337 (2013), which is hereby incorporated by reference in its entirety) and serves as a nuclear envelope rupture reporter (Denais et al., “Nuclear Envelope Rupture and Repair During Cancer Cell Migration,” Science 352:353-358 (2016), which is hereby incorporated by reference in its entirety) was used.
# Extended imaging using incubator microscope. […] Resulting images were analyzed using the Incucyte software, which performs fluorescence background subtraction using a top hat method and then subsequent thresholding. cGAS-mCherry cells were thresholded and then analyzed for increase in fluorescent foci over time to track the rate of increase in nuclear envelope rupture or damage. […]
Molecule,DNA damage (γH2AX foci per nucleus) [1],DNA damage (γH2AX foci) [1],myofiber viability (MTT) [2],myofiber viability (MTT) [3],nuclear envelope rupture [4],percentage of nuclei with chromatin protrusions [5],cardiac conduction defects [6],nuclear deformation in response to cytoplasmic force application (nuclear strain) [7],incidence of nuclear envelope rupture (cGAS-mCherry foci) [8]
O=c1cc(-c2cccc3c2Sc2ccccc2S3)oc(N2CCOCC2)c1 [KU55933],significant increase in DNA damage,accumulation of DNA damage,loss of viability,did not further reduce viability,–,–,–,–,–
O=c1cc(N2CCOCC2)oc2c(-c3cccc4c3sc3ccccc34)cccc12 [NU7441],significant increase in DNA damage,accumulation of DNA damage,loss of viability,did not further reduce viability,–,–,–,–,–
Cc1ccc2c(c1)C(=O)C1(O)CCN(c3ccccc3)C1=N2 (stereo not shown) [blebbistatin],–,–,–,–,rescued,–,–,–,–
CC(=O)O[C@H]1C(=O)[C@@]2(C)[C@H]([C@H](OC(=O)c3ccccc3)[C@]3(O)C[C@H](OC(=O)[C@H](O)[C@@H](NC(=O)c4ccccc4)c4ccccc4)C(C)=C1C3(C)C)[C@]1(OC(C)=O)CO[C@@H]1C[C@@H]2O [paclitaxel],–,–,–,–,–,significantly reduced the percentage of nuclei with chromatin protrusions,improve cardiac conduction defects,significantly reduced nuclear deformation,significantly reduced
phleomycin,–,accumulation of DNA damage,loss of viability,did not further reduce viability,–,–,–,–,–
